Experimental data taken from ChEMBL document CHEMBL1201862, “PubChem BioAssay data set” (2004).
The source made the active and inactive calls.

Experiments:
[1] = molecular target: T1, DNA repair protein RAD52 homolog (Homo sapiens, UniProt P43351); type: functional, biochemical
T1 sequence (P43351 whole entry): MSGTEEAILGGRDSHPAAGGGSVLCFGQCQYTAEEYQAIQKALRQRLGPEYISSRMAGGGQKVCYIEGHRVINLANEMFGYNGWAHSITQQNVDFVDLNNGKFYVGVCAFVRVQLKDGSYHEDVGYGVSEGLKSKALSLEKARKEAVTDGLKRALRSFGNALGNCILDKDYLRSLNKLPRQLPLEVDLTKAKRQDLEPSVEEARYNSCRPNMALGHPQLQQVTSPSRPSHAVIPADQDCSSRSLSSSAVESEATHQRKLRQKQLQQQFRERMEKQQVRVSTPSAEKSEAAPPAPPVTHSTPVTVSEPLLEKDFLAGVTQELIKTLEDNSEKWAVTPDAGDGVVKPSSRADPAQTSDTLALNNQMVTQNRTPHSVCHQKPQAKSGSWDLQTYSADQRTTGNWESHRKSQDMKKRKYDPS

[2] = viability loss in HepG2 liver cells – cell-based, ATP luminescence, cherry-pick, set 6, cytotoxicity control, dose response (AID 1053125); type: functional
[3] = cells; details: HEK293
[4] = Trypanosoma cruzi growth suppression in host cells – NIH3T3 host cells, beta-gal luminescence, confirmation (AID 2044); type: functional, cell-based;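 also: intracellular parasites grown in NIH/3T3 mouse fibroblasts as host cells; luminescent beta-galactosidase reporter signal from transgenic T. cruzi replicating inside host cells; inhibitors lower the luminescence signal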
[5] = NIH3T3 cell viability loss – ATP luminescence, mouse fibroblasts, counter-screen, dose response (AID 2010); type: functional, cell-based;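 also: cells exposed to compound for about 90 hours before reading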
[6] = molecular target: COUP transcription factor 2 (Homo sapiens, UniProt P24468); experiment: Luminescence-based cell-based high throughput dose response assay to identify inhibitors of COUP-TFII (NR2F2).; type: functional;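 also: HEK293 cells transiently cotransfected with COUP-TFII expression vector and reporter; luciferase reporter luminescence driven by COUP-TFII from the pX2-168 reporter plasmid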
Chain of COUP transcription factor 2 (P24468 whole entry): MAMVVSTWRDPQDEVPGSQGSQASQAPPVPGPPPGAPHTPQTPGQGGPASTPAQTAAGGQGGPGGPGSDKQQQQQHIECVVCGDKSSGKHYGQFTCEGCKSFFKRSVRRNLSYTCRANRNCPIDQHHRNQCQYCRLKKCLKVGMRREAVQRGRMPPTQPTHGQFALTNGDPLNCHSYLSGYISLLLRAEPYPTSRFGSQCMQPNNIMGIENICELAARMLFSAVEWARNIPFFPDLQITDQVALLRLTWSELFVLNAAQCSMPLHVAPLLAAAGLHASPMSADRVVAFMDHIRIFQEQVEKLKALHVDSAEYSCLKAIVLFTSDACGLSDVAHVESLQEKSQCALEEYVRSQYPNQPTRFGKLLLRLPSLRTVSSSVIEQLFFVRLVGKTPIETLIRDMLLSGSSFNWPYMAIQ

[7] = EF1alpha-driven Renilla reporter with control 3'UTR suppression – Clone20-Shn3RL cells, dual-Glo, cherry-pick, set 2, counter-screen for Shn3 3'UTR targeting project, dose response (AID 720724); type: functional, cell-based; details: Dual-Go Shn3RL
[8] = reduction of Shn3 3'UTR-driven luciferase in osteoblasts – cell-based, Clone20 osteoblasts, firefly luciferase, cherry-picked, dose response (AID 624132); type: functional;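 also: firefly luciferase luminescence from reporter carrying the Shn3 3'UTR in osteoblasts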
[9] = system: HEK293; experiment: EBV LMP1 TES2 canonical NF-kB signalling blockers – cell-based, HEK293, luciferase, cherry-pick, dose response (AID 588343); type: functional; details: Homo sapiens
[10] = non-specific 3'UTR reporter inhibition in Clone20-Shn3RL – cell-based, Renilla luciferase, cherry-picked, counter-screen for Shn3 inhibitor project, dose response (AID 624133); type: functional
[11] = molecular target: T2, Interleukin-8 (Homo sapiens, UniProt P10145); experiment: Dose Response confirmation of uHTS small molecule hits for cystic fibrosis induced NFkb Inhibitors in a TNFa-induced IL8 counterscreen.; type: functional; details: read-out: IC50_Mean
T2 sequence (P10145 whole entry): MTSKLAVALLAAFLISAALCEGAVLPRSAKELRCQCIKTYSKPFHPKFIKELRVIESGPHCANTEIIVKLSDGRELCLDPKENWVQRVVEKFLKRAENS

[12] = Shn3 3'UTR reporter signal decrease – cell-based, Clone20 osteoblasts, firefly luciferase, cherry-pick, set 2, Schnurri-3 inhibitor project, dose response (AID 720490); type: functional;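 also: actives lower the luminescence signal as inhibitors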
[13] = loss of viability in HepG2 cells – cell-based, CellTiter-Glo, cherry-picked, cytotoxicity control for Shn3 inhibitor project, dose response (AID 624134); type: functional
[14] = molecular target: T2, Interleukin-8; experiment: Dose Response confirmation of uHTS small molecule hits for cystic fibrosis induced NFkb Inhibitors in a PAF-induced IL8 counterscreen.; type: functional; details: read-out: IC50_Mean
[15] = viability loss in HepG2 hepatoma cells – cell-based, ATP luminescence, cherry-pick, activator set 2, cytotoxicity control, dose response (AID 1053143); type: functional
[16] = molecular target: T3, Disintegrin and metalloproteinase domain-containing protein 17 (Homo sapiens, UniProt P78536); experiment: exosite inhibitors of ADAM17, dose response, biochemical (AID 743260)
T3 sequence (P78536 whole entry, the tested form may be a part): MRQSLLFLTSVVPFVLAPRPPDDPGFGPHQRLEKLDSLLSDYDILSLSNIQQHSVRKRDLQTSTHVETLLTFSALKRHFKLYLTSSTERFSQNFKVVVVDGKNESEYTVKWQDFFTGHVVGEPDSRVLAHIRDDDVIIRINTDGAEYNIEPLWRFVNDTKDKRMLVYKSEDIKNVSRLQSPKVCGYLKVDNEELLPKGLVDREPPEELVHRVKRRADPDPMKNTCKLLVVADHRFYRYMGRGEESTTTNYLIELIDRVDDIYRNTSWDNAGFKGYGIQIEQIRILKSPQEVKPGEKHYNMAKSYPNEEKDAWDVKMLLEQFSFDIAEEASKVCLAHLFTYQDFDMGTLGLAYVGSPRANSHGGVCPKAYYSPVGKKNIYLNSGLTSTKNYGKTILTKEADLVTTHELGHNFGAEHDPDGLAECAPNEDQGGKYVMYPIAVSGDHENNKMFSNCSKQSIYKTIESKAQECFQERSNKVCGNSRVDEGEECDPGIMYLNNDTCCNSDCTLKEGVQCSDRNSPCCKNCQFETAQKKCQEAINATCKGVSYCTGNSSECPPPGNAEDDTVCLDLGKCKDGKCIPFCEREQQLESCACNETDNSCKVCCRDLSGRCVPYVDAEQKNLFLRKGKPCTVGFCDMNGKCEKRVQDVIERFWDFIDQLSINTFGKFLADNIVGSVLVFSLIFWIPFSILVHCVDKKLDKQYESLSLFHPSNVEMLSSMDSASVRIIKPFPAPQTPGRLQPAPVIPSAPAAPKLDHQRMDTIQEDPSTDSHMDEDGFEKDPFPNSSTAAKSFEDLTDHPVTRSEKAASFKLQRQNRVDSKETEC

[17] = potency of ADAM10 substrate cleavage blockers – biochemical, QFRET, dose response (AID 743254);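 also: ADAM10 enzyme with the DM2 quenched FRET peptide as substrate; EDANS fluorescence gain as the protease cuts the substrate; inhibitor potency against ADAM10 proteolytic activity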
[18] = molecular target: T3, Disintegrin and metalloproteinase domain-containing protein 17; experiment: inhibition of ADAM17 substrate cleavage – biochemical, quenched FRET substrate, counter-screen for ADAM10 exosite inhibitor project, dose response (AID 743253)
[19] = system: BJ; experiment: BJ-TERT-LT-ST fibroblast viability loss – cell-based, RAS-independent, luminescence, dose response (AID 1935); type: functional; details: Homo sapiens;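 also: BJ fibroblasts immortalized with TERT plus LT and ST oncogenes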
[20] = DRD fibroblast viability loss – cell-based, non-viral oncogenic, luminescence, dose response (AID 1934); type: functional; details: Homo sapiens
[21] = OVCAR-3 cell viability loss – plate reader, dry powder samples, PAX8 inhibitor project, dose response (AID 743044); type: functional, cell-based
[22] = OVCAR4 cell viability loss – plate reader, dry powder, SA11, cytotoxicity control for PAX8 inhibitor project, dose response (AID 743150); type: functional, cell-based; details: OVCAR-4
[23] = COV362 cell viability loss – plate reader, dry powder, SA12, cytotoxicity control for PAX8 inhibitor project, dose response (AID 743144); type: functional, cell-based
[24] = system: BJ; experiment: BJ-TERT fibroblast viability loss – cell-based, RAS-independent, luminescence, dose response (AID 1933); type: functional; details: Homo sapiens
[25] = inhibitors acting on PAX2 in cells – cell-based, plate reader, dry powder samples, selectivity assay for PAX8 inhibitor project, dose response (AID 743048); type: functional;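 also: HEK293 cells carrying a WT1 promoter luciferase reporter driven by expressed Pax2; potency is for inhibition of Pax2 driven reporter signal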
[26] = toxicity toward immortalized ovarian surface epithelium – cell-based, plate reader, dry powder samples, cytotoxicity control for PAX8 inhibitor project, dose response (AID 743045); type: functional
[27] = molecular target: Paired box protein Pax-8 (Homo sapiens, UniProt Q06710); experiment: PAX8 transcriptional activity inhibition in RMG-I – RMG-I cells, luciferase, cherry-pick, dose response (AID 687027); type: functional, cell-based;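 also: luciferase reporter driven by Pax8 target thyroperoxidase promoter measured by SteadyGlo luminescence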
Chain of Paired box protein Pax-8 (Q06710 whole entry): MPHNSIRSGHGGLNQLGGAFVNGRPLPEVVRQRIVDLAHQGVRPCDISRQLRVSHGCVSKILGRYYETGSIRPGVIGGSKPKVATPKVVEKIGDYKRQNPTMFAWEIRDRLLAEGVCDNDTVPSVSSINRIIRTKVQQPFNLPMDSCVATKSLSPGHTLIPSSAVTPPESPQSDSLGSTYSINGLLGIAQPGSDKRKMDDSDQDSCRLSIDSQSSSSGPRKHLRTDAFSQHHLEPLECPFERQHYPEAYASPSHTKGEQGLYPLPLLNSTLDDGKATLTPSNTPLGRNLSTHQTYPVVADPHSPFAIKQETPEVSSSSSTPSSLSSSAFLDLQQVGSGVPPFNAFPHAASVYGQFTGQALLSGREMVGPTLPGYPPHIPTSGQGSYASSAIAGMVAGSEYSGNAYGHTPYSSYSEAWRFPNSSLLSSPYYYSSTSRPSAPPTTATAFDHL

[28] = luciferase reporter signal suppression in cells – H4 neuroglioma cells, luminescence, dose response (AID 1990); type: functional, cell-based
[29] = PAX8-dependent cell viability loss – plate reader, dry powder, dose response (AID 743049); type: functional, cell-based
[30] = PAX5 cellular inhibition readout – cell-based, plate reader, dry powder samples, selectivity assay for PAX8 inhibitor project, dose response (AID 743047); type: functional;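 also: HEK293 cells carrying a Pax5 driven CD19 promoter luciferase reporter; potency of inhibitors that lower reporter luminescence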
[31] = A2780 cell killing – plate reader, dry powder samples, cytotoxicity control, dose response (AID 743046); type: functional, cell-based
[32] = IGROV1 cell killing – plate reader, dry powder samples, PAX8 inhibitor project, dose response (AID 743043); type: functional, cell-based; details: IGROV-1
[33] = system: BJ; experiment: cells; type: functional, cell-based; details: Homo sapiens
[34] = system: BJ; experiment: growth inhibition of engineered Ras-driven BJ cells – cell-based, alamar blue fluorescence, cherrypicked samples, dose response (AID 2631); type: functional; details: Homo sapiens;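 also: confirmatory dose-response assay in RAS-dependent BJ fibroblasts engineered with TERT, LT and ST, with cytotoxicity read by fluorescence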
[35] = Luminescence Cell-Based Dose Response HTS to Identify Inhibitors of 5'UTR Stem-Loop Driven Prion Protein mRNA Translation in H4 Neuroglioblastoma Cells. [Related pubchem assays: 1827 (Project Summary), 1813 (Primary HTS)]; type: functional
[36] = COV434 cell viability loss – plate reader, dry powder, SA7, cytotoxicity control for PAX8 inhibitor project, dose response (AID 743145); type: functional, cell-based
[37] = OV-90 cell viability loss – plate reader, dry powder, SA8, PAX8 inhibitor project, dose response (AID 743149); type: functional, cell-based
[38] = alpha-synuclein stem-loop luciferase translation blockers – H4 neuroglioma cells, luminescence, confirmation (AID 1988); type: functional, cell-based
[39] = OVCAR8 cell viability loss – plate reader, dry powder samples, PAX8 project, dose response (AID 743197); type: functional, cell-based; details: OVCAR-8
[40] = general mammalian cell viability loss – activator set, cherry-pick, cytotoxicity control for miR-122 modulator project, dose response (AID 720690); type: functional, cell-based;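 also: HEK293T human cells scored for general mammalian cytotoxicity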
[41] = activation of miR-122 Renilla sensor silencing – cell-based, Huh7 psiCHECK-miR122, Renilla luciferase, cherry-picked, dose response (AID 651956); type: functional;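 also: huh7 hepatoma cells stably carrying a psiCHECK-2 miR-122 sensor plasmid; renilla luciferase signal reporting endogenous miR-122 activity after 48 h compound exposure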
[42] = molecular target: Scavenger receptor class B member 1 (Mus musculus, UniProt Q61009); experiment: blockers of DiI-HDL lipid transfer via SR-BI – cell-based, ldlA[mSR-BI] CHO, DiI fluorescence, dry powder, set 10, dose response (AID 624029); type: functional
Chain of Scavenger receptor class B member 1 (Q61009 whole entry): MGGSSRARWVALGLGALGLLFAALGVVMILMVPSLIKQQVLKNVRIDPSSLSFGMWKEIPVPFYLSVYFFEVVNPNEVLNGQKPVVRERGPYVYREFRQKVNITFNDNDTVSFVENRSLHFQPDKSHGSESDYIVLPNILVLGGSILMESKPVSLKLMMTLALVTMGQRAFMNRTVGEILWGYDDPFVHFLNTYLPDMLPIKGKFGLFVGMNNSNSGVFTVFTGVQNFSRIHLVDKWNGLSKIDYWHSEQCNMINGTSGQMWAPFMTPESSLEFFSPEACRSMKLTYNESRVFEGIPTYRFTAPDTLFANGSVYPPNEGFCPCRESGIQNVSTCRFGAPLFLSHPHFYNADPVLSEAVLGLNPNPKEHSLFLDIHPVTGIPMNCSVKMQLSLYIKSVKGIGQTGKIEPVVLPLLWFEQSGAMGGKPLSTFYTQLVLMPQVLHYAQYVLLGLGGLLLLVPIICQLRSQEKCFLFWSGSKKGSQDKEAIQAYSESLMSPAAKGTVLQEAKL

Cc1cccn2c(=O)c3cc(C(=O)NC(C)c4ccccc4)c(=N)n(CCCn4ccnc4)c3nc12 (stereo not drawn)
AC50 [1]: 4.29 µM (active) | AC50 [2]: > 52 µM (inactive) | AC50 [3]: > 52 µM (inactive)

Cc1c(C(=O)N2CCN(Cc3ccc4c(c3)OCO4)CC2)sc2ncnc(N3CCN(c4ccccc4F)CC3)c12
EC50 [4]: 0.487 µM (active) | EC50 [5]: > 60 µM (not active) | IC50 [6]: 6.85 µM (active)

Cc1ccccc1C(=O)N1CCN(c2ccc(NC(=O)CSc3ccc(Cl)cc3)cc2)CC1
AC50 [7]: 38.8 µM (active) | AC50 [8]: 4.23 µM (active) | AC50 [9]: 0.378 µM (active) | AC50 [10]: 25.2 µM (active) | IC50 [11]: 39.9 µM (inactive) | AC50 [12]: 6.91 µM (active) | AC50 [13]: 44.1 µM (active) | IC50 [14]: 1.6 µM (active)

Cc1cc2nn(-c3ccc(Cl)cc3)nc2cc1N
AC50 [15]: 21.4 µM (active)

O=C(NCC1CCCO1)C(c1cccs1)N(Cc1ccccc1)C(=O)c1ccc(-c2ccccc2)[nH]1 (stereo not drawn)
IC50 [16]: > 69.5 µM (inactive) | IC50 [17]: > 69.5 µM (inactive) | IC50 [18]: > 69.5 µM (inactive)

CCOc1ccc2c(c1)C(C)=CC(C)(C)N2S(=O)(=O)c1ccc(NC(C)=O)cc1
EC50 [19]: 0.428 µM (inconclusive) | EC50 [20]: 0.722 µM (active) | AC50 [21]: 41.1 µM (active) | AC50 [22]: 1.83 µM (active) | AC50 [23]: 4.1 µM (active) | EC50 [24]: 0.642 µM (active) | AC50 [25]: 31.8 µM (active) | AC50 [26]: 2.54 µM (active) | AC50 [27]: 1.61 µM (active) | EC50 [28]: 0.199 µM (active) | AC50 [29]: 12.1 µM (active) | AC50 [30]: 89.2 µM (active) | AC50 [31]: 4.06 µM (active) | AC50 [32]: 15.9 µM (active) | EC50 [33]: 1.54 µM (active) | EC50 [34]: < 0.104 µM (active) | EC50 [35]: 0.162 µM (active) | AC50 [36]: 1.53 µM (active) | AC50 [37]: 2.6 µM (active) | EC50 [38]: 0.129 µM (active)

C[C@@H]1CN([C@@H](C)CO)C(=O)Cc2cc(NC(=O)Nc3ccc(C(F)(F)F)cc3)ccc2O[C@H]1CN(C)Cc1ccc(Oc2ccccc2)cc1
AC50 [27]: 10.3 µM (active) | AC50 [39]: 39.9 µM (active) | AC50 [40]: 19.9 µM (active) | AC50 [41]: 19.9 µM (active)

CC(C)NC(=O)Nc1ccc2c(c1)C(=O)N([C@@H](C)CO)C[C@@H](C)[C@H](CN(C)S(=O)(=O)c1ccc(Cl)cc1)O2
AC50 [42]: 0.154 µM (active)
